Experimental data published in patent publication US20260022118A1, “HETEROCYCLIC COMPOUNDS AS NRAS INHIBITORS” (Board of Regents, The University of Texas System, priority 2023, published 2026).
Read-outs that look alike come from different tables or passages of the source.

Columns and labels:
NRAS G12D C118S = NRAS G12D C118S (Homo sapiens (Human), UniProt P01111, C118S/G12D); test: NRas G12D Surface Plasmon Resonance (SPR) binding assay; settings: Avi-tagged biotinylated NRAS G12D C118S on streptavidin chip, 25° C., 1:1 kinetic or steady-state fit
Sequence of NRAS G12D C118S (P01111 whole entry G12D/C118S): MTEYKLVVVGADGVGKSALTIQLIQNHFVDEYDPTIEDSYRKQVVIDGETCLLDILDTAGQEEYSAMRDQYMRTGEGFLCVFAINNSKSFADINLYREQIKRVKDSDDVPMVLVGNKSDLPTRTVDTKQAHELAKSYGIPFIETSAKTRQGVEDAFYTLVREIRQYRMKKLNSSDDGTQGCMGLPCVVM
Method: NRas G12D Surface Plasmon Resonance (SPR) Binding Assay
This Example illustrates that exemplary compounds and salts thereof described herein bind to NRAS G12D as measured by surface plasmon resonance (SPR).
Two liters of 1.03× running buffer (1.03×HBS-P+pH 7.4, containing 0.0103 M HEPES, 0.1545 M NaCl, 0.0515% v/v Surfactant P20 (Cytiva®, BR100671); 5.15 mM MgCl2 (Invitrogen, AM9530G); 0.515 mM TCEP, pH 8.0 (GoldBio®, TCEP25)) was prepared and filter sterilized using a 0.22 μm filter. A 1-L volumetric flask was filled partway with this buffer. A 30-mL volumetric flask was used to measure 30 mL of 100% DMSO (Sigma Aldrich®, 41639-100ML) which was added to the 1-L flask. The solution in the 1-L flask was brought up to 1 L with 1.03× buffer, resulting in a 1.0× assay running buffer containing 1.0×HBS-P+, 5 mM MgCl2, […], and 3% DMSO. Remaining 1.03× buffer was used for preparation of samples and immobilization running buffer.
Samples were prepared in a standard conical-bottomed 384-well microplate by adding 2 μL 10 mM DMSO cpd stock to each well, followed by 8 μL DMSO. A control compound was selected based off of its relatively “fast” kinetics that could be fitted by 1:1 kinetic fitting, as well as by steady-state fitting. Control wells for periodic injection to assess protein activity throughout the assay were also assembled, by diluting 10 mM compound 1:30 in DMSO, then adding 20 μL to the appropriate wells, such that the final concentration of compound would be 10 μM, and the final concentration of DMSO would be 3%. A Biomek™ FXP Laboratory Automation Workstation was used to stamp 20 μL DMSO into all sample wells—minus the control wells—according to the plate map, and then serially dilute 1:3 by mixing and aspirating 10 μL, delivering into the 20 μL of DMSO in the next well, resulting in 10-point serial dilution curves. A Biotek™ Multiflo EL406 Washer Dispenser was used to deliver 80 μL of 1.03× buffer to the compound plate. The plate was mixed 10× by FX, then a final dilution was performed by stamping 18 μL from the compound plate into a 384-well deep-well plate that had also been previously filled with 102 μL 1.03× buffer via the Multiflo. The solution in the deep-well plate was mixed 10× by FX, then sealed with a 384-well microplate foil from Cytiva® (Cytiva® BR100577) and placed on an orbital shaker for 30 minutes at 1000 RPM to ensure complete mixing of the DMSO solution in the buffer. A solvent correction curve was also prepared by making a 4% DMSO solution in 1.03× buffer and diluting in 1.03× buffer such that there were eight solutions of decreasing DMSO concentrations resulting in a high DMSO concentration of 4% and a low concentration of 2% DMSO.
Immobilization running buffer was prepared in a 200-mL volume by diluting 1.03× running buffer prepared above to 1.0×. A Cytiva® Streptavidin chip (Cytiva®, 29104992) was docked into a Biacore™ S200 instrument, and the instrument was then primed three times into the immobilization running buffer. A protein stock of Avi-tagged NRAS G12D C118S was prepared in-house and biotinylated using the Bulk BirA: BirA biotin-protein ligase bulk reaction kit from Avidity (Avidity®, Bulk BirA). Upon completion of the biotinylation reaction, Amicon® ultra 0.5-mL Centrifugal Filters with a MWCO of 3 k Da (Millipore® UFC500396) were used to reduce the free biotin concentration below 0.1 μM in the protein sample over the course of eight desalting cycles, according to the manufacturer's protocol. Resulting protein concentration was not measured directly as an accurate protein concentration is not required for immobilizing protein on the chip surface; however, a theoretical yield of ≤1.5 mg/mL was estimated based off of retained volumes during the desalting process. Reagents for immobilization were prepared as instructed in the Biacore™ 5200 Control Software Immobilization Wizard, including solutions of 1 M NaCl in 50 mM NaOH, and 1 M NaCl in 50 mM NaOH and 50% isopropyl alcohol. […]

[1] = system: THP-1 cells expressing G12D (NRAS G12D); test: Inhibition of NRAS G12D-mediated phosphorylation of ERK (AlphaLISA p-ERK1/2) in THP-1 cells; assay type: cell-based; settings: 2 hours incubation, HBSS with 0% or 10% FBS, p-ERK1/2 (Thr202/Tyr204) AlphaLISA, read-out: pERK THP-1 IC50
In short: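 THP-1 cells expressing NRAS G12D, seeded in HBSS with 0% or 10% FBS, were exposed to test compound (1% DMSO final) for 2 h. p-ERK1/2 (Thr202/Tyr204) read by AlphaLISA SureFire Ultra. IC50 from curves normalized to no-inhibitor (100%) and 1 μM trametinib (0%) controls.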

SMILES | Kd (NRAS G12D C118S) | IC50 ([1]; Homo sapiens, THP-1, 2 h) | IC50 [1]
C#Cc1c(F)ccc2cc(O)cc(-c3ncc4c(N5CC6CCCC(C5)N6)nn(C)c4c3F)c12 [Example 31, 4-[3-(3,9-diazabicyclo[3.3.1]nonan-3-yl)-7-fluoro-1-methyl-pyrazolo[4,3-c]pyridin-6-yl]-5-ethynyl-6-fluoro-naphthalen-2-ol] | 3.43 µM | 18.1 µM | –
C#Cc1c(F)ccc2cc(O)cc(-c3ncc4c(N5CC(N(C)C)C5)nn(C)c4c3F)c12 [Example 33, 4-[3-[3-(dimethylamino)azetidin-1-yl]-7-fluoro-1-methyl-pyrazolo[4,3-c]pyridin-6-yl]-5-ethynyl-6-fluoro-naphthalen-2-ol] | 8.75 µM | > 50 µM | –
C#Cc1c(F)ccc2cc(O)cc(-c3ncc4c(N5CC6CC(C5)N6)nn(C)c4c3F)c12 [Example 34, 4-[3-(3,6-diazabicyclo[3.1.1]heptan-3-yl)-7-fluoro-1-methyl-pyrazolo[4,3-c]pyridin-6-yl]-5-ethynyl-6-fluoro-naphthalen-2-ol] | 0.613 µM | 5.98 µM | –
C#Cc1c(F)ccc2cc(O)cc(-c3ncc4c(N5CC6CCCC5CN6)nn(C)c4c3F)c12 (stereo not drawn) [Example 36, 4-[3-(6,8-diazabicyclo[3.2.2]nonan-6-yl)-7-fluoro-1-methyl-pyrazolo[4,3-c]pyridin-6-yl]-5-ethynyl-6-fluoro-naphthalen-2-ol] | 4.03 µM | 12.8 µM | –
C#Cc1c(F)ccc2cc(O)cc(-c3ncc4c(c(C)cn4C4=CC5CCC4CN5)c3F)c12 (stereo not drawn) [Example 38, 4-[1-(2-azabicyclo[2.2.2]oct-5-en-5-yl)-4-fluoro-3-methyl-pyrrolo[2,3-c]pyridin-5-yl]-5-ethynyl-6-fluoro-naphthalen-2-ol] | 3.99 µM | 18.3 µM | –
C#Cc1c(F)ccc2cc(O)cc(-c3ncc4c(c(C)cn4C4CC5CCC4CN5)c3F)c12 (stereo not drawn) [Example 39, 4-[1-(2-azabicyclo[2.2.2]octan-5-yl)-4-fluoro-3-methyl-pyrrolo[2,3-c]pyridin-5-yl]-5-ethynyl-6-fluoro-naphthalen-2-ol] | 0.435 µM | 4.82 µM | –
C#Cc1c(F)ccc2cc(O)cc(-c3ncc4c(c(C)cn4C4[C@H]5CNC[C@@H]45)c3F)c12 (stereo partly drawn) [Example 40, 4-[1-[(1R,5S)-3-azabicyclo[3.1.0]hexan-6-yl]-4-fluoro-3-methyl-pyrrolo[2,3-c]pyridin-5-yl]-5-ethynyl-6-fluoro-naphthalen-2-ol] | 1.13 µM | > 10 µM | –
C#Cc1c(F)ccc2cc(O)cc(-c3ncc4c(C5=CC6CCC5CN6)nn(C)c4c3F)c12 (stereo not drawn) [Example 42, 4-[3-(2-azabicyclo[2.2.2]oct-5-en-5-yl)-7-fluoro-1-methyl-pyrazolo[4,3-c]pyridin-6-yl]-5-ethynyl-6-fluoro-naphthalen-2-ol] | 2.98 µM | > 10 µM | –
C#Cc1c(F)ccc2cc(O)cc(-c3ncc4c(N5C[C@@H]6C[C@H](O)[C@H](C5)N6)nn(C)c4c3F)c12 [Example 57, (1S,5S,6S)-3-(6-(8-ethynyl-7-fluoro-3-hydroxynaphthalen-1-yl)-7-fluoro-1-methyl-1H-pyrazolo[4,3-c]pyridin-3-yl)-3,8-diazabicyclo[3.2.1]octan-6-ol] | 0.737 µM | 17.3 µM | –

Now from value to compound:

Kd (NRAS G12D C118S) | IC50 ([1]; Homo sapiens, THP-1, 2 h) | IC50 [1] | SMILES
0.201 µM | – | 6.74 µM | C#Cc1c(F)ccc2cc(O)cc(-c3ncc4c(C5CC6CCC5CN6)nn(C)c4c3F)c12 (stereo not drawn) [Example 44, 4-[3-(2-azabicyclo[2.2.2]octan-5-yl)-7-fluoro-1-methyl-pyrazolo[4,3-c]pyridin-6-yl]-5-ethynyl-6-fluoro-naphthalen-2-ol]
9.94 µM | > 10 µM | – | C#Cc1c(F)ccc2cc(O)cc(-c3ncc4c(c3F)n(C)c(=O)n4C3[C@H]4CNC[C@@H]34)c12 (stereo partly drawn) [Example 45, 3-[(1R,5S)-3-azabicyclo[3.1.0]hexan-6-yl]-6-(8-ethynyl-7-fluoro-3-hydroxy-1-naphthyl)-7-fluoro-1-methyl-imidazo[4,5-c]pyridin-2-one]
0.0607 µM | 1.94 µM | – | C#Cc1c(F)ccc2cc(O)cc(-c3ncc4c([C@H]5[C@@H]6CNC[C@@H]65)nn(C5C[C@@H]5C)c4c3F)c12 (stereo partly drawn) [Example 46, 4-(3-((1R,5S,6r)-3-azabicyclo[3.1.0]hexan-6-yl)-7-fluoro-1-((1S,2S)-2-methylcyclopropyl)-1H-pyrazolo[4,3-c]pyridin-6-yl)-5-ethynyl-6-fluoronaphthalen-2-ol]
0.0815 µM | 0.438 µM | – | C#Cc1c(F)ccc2cc(O)cc(-c3ncc4c(C5C6CNCC65)nn(C5CC5(F)F)c4c3F)c12 (stereo not drawn) [Example 49, 4-[3-(3-azabicyclo[3.1.0]hexan-6-yl)-1-(2,2-difluorocyclopropyl)-7-fluoro-pyrazolo[4,3-c]pyridin-6-yl]-5-ethynyl-6-fluoro-naphthalen-2-ol]
0.3 µM | 4.8 µM | – | C#Cc1c(F)ccc2cc(O)cc(-c3ncc4c([C@H]5[C@@H]6CNC[C@@H]65)c(C#N)n(C)c4c3F)c12 [Example 58, 3-((1R,5S,6s)-3-azabicyclo[3.1.0]hexan-6-yl)-6-(8-ethynyl-7-fluoro-3-hydroxynaphthalen-1-yl)-7-fluoro-1-methyl-1H-pyrrolo[3,2-c]pyridine-2-carbonitrile]
1.11 µM | 3.47 µM | – | C#CCn1nc([C@H]2[C@@H]3CNC[C@@H]32)c2cnc(-c3cc(O)cc4ccc(F)c(C#C)c34)c(F)c21 [Example 59, 4-(3-((1R,5S,6r)-3-azabicyclo[3.1.0]hexan-6-yl)-7-fluoro-1-(prop-2-yn-1-yl)-1H-pyrazolo[4,3-c]pyridin-6-yl)-5-ethynyl-6-fluoronaphthalen-2-ol]
2.55 µM | 23 µM | – | C#Cc1c(F)ccc2cc(O)cc(-c3ncc4c(N5C[C@H]6CC[C@@H]5CN6)nn(C)c4c3F)c12 [Example 60, 4-(3-((1R,4R)-2,5-diazabicyclo[2.2.2]octan-2-yl)-7-fluoro-1-methyl-1H-pyrazolo[4,3-c]pyridin-6-yl)-5-ethynyl-6-fluoronaphthalen-2-ol]
0.0158 µM | 0.477 µM | – | C#Cc1c(F)ccc2cc(O)cc(-c3nc(OC)c4c([C@H]5[C@@H]6CNC[C@@H]65)nn(C5CC5)c4c3F)c12 [Example 61, 4-(3-((1R,5S,6r)-3-azabicyclo[3.1.0]hexan-6-yl)-1-cyclopropyl-7-fluoro-4-methoxy-1H-pyrazolo[4,3-c]pyridin-6-yl)-5-ethynyl-6-fluoronaphthalen-2-ol]
0.0188 µM | 0.115 µM | – | C#Cc1c(F)ccc2cc(O)cc(-c3nc(OC(C)C)c4c([C@H]5[C@@H]6CNC[C@@H]65)nn(C5CC5)c4c3F)c12 [Example 62, 4-(3-((1R,5S,6r)-3-azabicyclo[3.1.0]hexan-6-yl)-1-cyclopropyl-7-fluoro-4-isopropoxy-1H-pyrazolo[4,3-c]pyridin-6-yl)-5-ethynyl-6-fluoronaphthalen-2-ol]
